The values below are quoted from earlier work in patent US9120722B1, “Optically active valine complex and a method for producing the same” (Wellman Biosciences Co. Ltd., priority 2014, dated 2015).

The structures appear in SMILES notation.

For the data set the following is noted: for Solubility in water of the sulfonic acid salt with L-valine: salts with L-valine, prior art U.S. Pat. No. 5,689,001 and No. 6,072,083.

On to `CCc1ccc(S(=O)(=O)O)cc1` [p-ethylbenzene sulfonic acid], for which the “Solubility in water of the sulfonic acid salt with L-valine” value is 14.5%.

With `CC(C)c1ccc(S(=O)(=O)O)cc1` [p-isopropylbenzene sulfonic acid], the “Solubility in water of the sulfonic acid salt with L-valine” value is listed as 7.8%. Regarding `CC(C)[C@@H](N)C(=O)O` [D-valine], the “Solubility (aqueous solution)” value (room temperature, stated as known) was 8-10%.
